From US8916553B2 (Bristol-Myers Squibb Company, priority 2010, dated 2014)

Experiments:
testosterone levels = assay: 1-Day Cyno PK/PD Study; type: in vivo; conditions: cynomolgus monkeys; single oral dose of 5 mg/Kg in 80% PEG-400/water; blood samples over a 24 hour period (FIG. 1)
Procedure: 1-Day Cyno PK/PD Study Protocol
Animals: All procedures involving animals and their care were conducted in conformity with the guidelines that are in compliance with the Bristol-Myers Squibb Institutional Animal Care and Use Committee. Fully mature male cynomolgus monkeys (>4 yrs of age; 5-6 kg) were from an in-house colony. All the monkeys used had chronically implanted femoral vein access ports. For oral studies, all animals were fasted overnight prior to dosing and were fed 4 hr after dosing. All animals had free access to water and were conscious throughout the study.
Drug: For all oral pharmacokinetic studies in cynomolgus monkeys, the tested compound was formulated in polyethylene glycol (PEG 400): water (80:20, v:v) at concentrations of 1-5 mg/mL. […]
Sampling: Blood samples were collected from the femoral port, at 15, 30, and 45 min, and 1, 2, 4, 6, 8, 12, 24, 30, and 48 hr after oral administration. […] The plasma fraction was immediately separated by centrifugation (14,000 rpm, 10 min, 4° C.), frozen on dry ice, and stored at −20° C. until the samples were analyzed.
Analysis of Tested Compound: Plasma samples were thawed and treated with two volumes of acetonitrile containing internal standard. After centrifugation to remove precipitated proteins, an aliquot of supernatant was analyzed by LC/MS/MS. […]

Human CYP17 = Human CYP17 (Homo sapiens (Human), UniProt P05093); assay: CYP17 Total SPA Assay; type: biochemical; conditions: microsomes from HEK2 cells stably transfected with CYP17; 3H-Pregnenolone 1 uM; NADPH 2 mM; 45 minutes at room temperature
Procedure: CYP17 Total SPA Assay The assays were performed in U-bottom 384-well optiplates. […] The reaction was initiated by the combination of the microsomes and substrates in wells containing compound. The reaction was incubated at room temperature for 45 minutes and terminated by adding 7.5 μl of 0.2N HCl to each well. […] The plate was sealed and incubated overnight with shaking at 4° C. The beads were allowed to settle in the plate for 1 hour and the plate read on a TOPCOUNT® (Perkin-Elmer) plate reader. […] The final concentration of reagents in the assays are NADPH, 2 mM; 3H-Pregnenolone, 1 uM; microsomes, 1.25 ug/ml; […] Dose response curves were generated to determine the concentration required inhibiting 50% of enzyme activity (IC50). Compounds were dissolved at 10 mM in dimethylsulfoxide (DMSO) and evaluated at eleven concentrations, each in duplicate. IC50 values were derived by non-linear regression analysis. Table 22 below lists the IC50 values for the following Examples of this invention measured in the Total CYP17 SPA Assay hereinabove.

Human CYP17, sequence (P05093 whole entry): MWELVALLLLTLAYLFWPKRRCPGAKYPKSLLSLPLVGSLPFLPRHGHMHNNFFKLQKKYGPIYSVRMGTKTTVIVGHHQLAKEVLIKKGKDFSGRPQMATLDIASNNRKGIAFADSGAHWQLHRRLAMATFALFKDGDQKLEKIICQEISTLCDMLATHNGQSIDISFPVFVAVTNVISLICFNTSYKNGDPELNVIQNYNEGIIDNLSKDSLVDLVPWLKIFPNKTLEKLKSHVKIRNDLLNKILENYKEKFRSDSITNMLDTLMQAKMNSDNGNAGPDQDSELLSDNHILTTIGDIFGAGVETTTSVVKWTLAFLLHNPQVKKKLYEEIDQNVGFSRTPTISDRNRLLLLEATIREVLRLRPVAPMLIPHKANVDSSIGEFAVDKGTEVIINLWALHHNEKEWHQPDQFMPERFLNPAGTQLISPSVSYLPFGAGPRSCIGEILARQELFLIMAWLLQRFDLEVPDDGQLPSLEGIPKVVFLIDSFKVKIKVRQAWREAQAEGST

## COc1cc(NS(C)(=O)=O)ccc1-c1cnccc1C [Example 217, N-(3-methoxy-4-(4-methyl-3-pyridinyl)phenyl)methanesulfonamide]
Testosterone levels
  testosterone levels: reduced
Human CYP17
  IC50: 2.5 nM
